Results reported in US10759796B2, “CXCR4 inhibitors and uses thereof” (X4 Pharmaceuticals, Inc., priority 2016, dated 2020).

Target: Jurkat cells expressing CXCR4 (Homo sapiens (Human), UniProt P61073)
Test: Chemokine (CXCL12-AF647) binding inhibition assay
Details: CXCL12-AF647 25 ng/mL, read-out: IC50 CXCL-12 binding Jurkat
Method in brief: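 Cells in HBSS, 20 mM HEPES, 0.2% BSA, pH 7.4, preincubated 15 min at room temperature with compound, then 25 ng/mL CXCL12-AF647 for 30 min. After washing and paraformaldehyde fixation, bound ligand read by flow cytometry; percent inhibition calculated from MFI relative to unlabeled and ligand-only controls.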

Jurkat cells expressing CXCR4, sequence (P61073 whole entry): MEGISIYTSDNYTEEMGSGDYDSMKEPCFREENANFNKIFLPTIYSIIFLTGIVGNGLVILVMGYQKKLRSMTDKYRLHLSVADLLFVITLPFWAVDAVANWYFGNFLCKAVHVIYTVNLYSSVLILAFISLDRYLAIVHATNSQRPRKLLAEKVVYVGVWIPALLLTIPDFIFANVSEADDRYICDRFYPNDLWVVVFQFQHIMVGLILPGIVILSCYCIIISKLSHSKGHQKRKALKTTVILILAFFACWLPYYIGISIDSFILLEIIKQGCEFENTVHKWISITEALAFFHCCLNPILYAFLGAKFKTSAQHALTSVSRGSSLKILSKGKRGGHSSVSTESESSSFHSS

| Structure (SMILES) | IC50 |
| --- | --- |
| Cc1cccnc1[C@@H]1CCC[C@H](c2cn3c(N4C5CCC4CNC5)cccc3n2)N1C [Compound I-110] | 0.01 to 100 nM |
| Cc1cccnc1[C@@H]1CCC[C@H](c2nc3ccccn3c2COC2CCCN(C)C2)N1C (stereo partly shown) [Compound I-63] | 0.01 to 100 nM |
| Cc1cccnc1[C@@H]1CCC[C@H](c2cn3c(N4CCN(C)CC4)cccc3n2)N1CCCO [Compound I-49] | 0.01 to 100 nM |
| Cc1cccnc1[C@@H]1CCC[C@H](c2nc3cccc(N4CCN(C5CC5)CC4)n3c2Br)N1C [Compound I-67] | 0.01 to 100 nM |
| CO[C@H](c1c([C@H]2CCC[C@@H](c3ncccc3C)N2C)nc2ccccn12)C1CCN(C)CC1 [Compound I-104] | 0.01 to 100 nM |
| CCOCc1c([C@H]2CCC[C@@H](c3ncccc3C)N2C)nc2cccc(N3CCN(C)CC3)n12 [Compound I-21] | 0.01 to 100 nM |
| Cc1cccnc1[C@@H]1CCC[C@H](c2cn3c(N4CCN(C5CC5)CC4)cccc3n2)N1C [Compound I-66] | 0.01 to 100 nM |
| C#Cc1c([C@H]2CCC[C@@H](c3ncccc3C)N2C)nc2cccc(N3CCN(C)CC3)n12 [Compound I-89] | 0.01 to 100 nM |
| Clc1cccnc1[C@@H]1CCC[C@H](c2nc3cccc(N4CCNC5(CC5)C4)n3c2Cl)N1 [Compound I-167] | 100 to 1000 nM |
| CN1CCN(c2cccc3nc([C@H]4CCC[C@@H](c5ncccc5OC(F)(F)F)N4C)cn23)CC1 [Compound I-81] | 0.01 to 100 nM |
| Cc1cccnc1[C@@H]1CCC[C@H](c2nc3cccc(N4CCN(C)CC4)n3c2Br)N1C(C)C [Compound I-47] | 0.01 to 100 nM |
| Cc1cccnc1[C@@H]1CCC[C@H](c2nc3cccc(N4CCN(C5CC5)CC4)n3c2Cl)N1C [Compound I-93] | 0.01 to 100 nM |
| CN(C)C1CCN(c2cccc3nc([C@H]4CCC[C@@H](c5ncccc5Cl)N4C)c(CO)n23)CC1 [Compound I-136] | 0.01 to 100 nM |
| Cc1cccnc1[C@@H]1CCC[C@H](c2nc3ccccn3c2CCCN2CCOCC2)N1C [Compound I-29] | 0.01 to 100 nM |
| Cc1cccnc1[C@@H]1CCC[C@H](c2nc3cccc(N4CCN(C)CC4)n3c2COC2CC2)N1C [Compound I-85] | 0.01 to 100 nM |
| Cc1cccnc1[C@@H]1CCC[C@H](c2nc3cccc(N4CCN(C)CC4)n3c2Br)N1C [Compound I-17] | 0.01 to 100 nM |
| Cc1cccnc1[C@@H]1CCC[C@H](c2nc3ccccn3c2COC2CCN(C)CC2)N1C [Compound I-62] | 100 to 1000 nM |

System: not listed separately
Test: in vitro
Details: human, Caco-2, pH 7.4
Method in brief: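 Compounds at 10 μM in HBSS pH 7.4 (0.1–0.3% DMSO) were dosed on Caco-2 monolayers, apical-to-basolateral and basolateral-to-apical, for 90 min at 37 °C, in duplicate. Monolayer integrity was checked by TEER and lucifer yellow flux, read by fluorescence at 485/535 nm. Compound was quantified by LC-MS/MS and Papp calculated.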

| Structure (SMILES) | Papp A→B at 90 min, 10 μM | Papp B→A at 90 min, 10 μM | efflux ratio at 90 min, 10 μM |
| --- | --- | --- | --- |
| Cc1cccnc1[C@@H]1CCC[C@H](c2cn3c(N4C5CCC4CNC5)cccc3n2)N1C [Compound I-110] | 0.1 to 10 ×10⁻⁶ cm/s | 10 to 30 ×10⁻⁶ cm/s | > 30 |
| Cc1cccnc1[C@@H]1CCC[C@H](c2nc3ccccn3c2COC2CCCN(C)C2)N1C (stereo partly shown) [Compound I-63] | 0.1 to 10 ×10⁻⁶ cm/s | 10 to 30 ×10⁻⁶ cm/s | 10 to 30 |
| Cc1cccnc1[C@@H]1CCC[C@H](c2cn3c(N4CCN(C)CC4)cccc3n2)N1CCCO [Compound I-49] | 0.1 to 10 ×10⁻⁶ cm/s | 10 to 30 ×10⁻⁶ cm/s | 0.1 to 10 |
| Cc1cccnc1[C@@H]1CCC[C@H](c2nc3cccc(N4CCN(C5CC5)CC4)n3c2Br)N1C [Compound I-67] | 0.1 to 10 ×10⁻⁶ cm/s | 0.1 to 10 ×10⁻⁶ cm/s | 0.1 to 10 |
| CO[C@H](c1c([C@H]2CCC[C@@H](c3ncccc3C)N2C)nc2ccccn12)C1CCN(C)CC1 [Compound I-104] | 0.1 to 10 ×10⁻⁶ cm/s | 10 to 30 ×10⁻⁶ cm/s | > 30 |
| CCOCc1c([C@H]2CCC[C@@H](c3ncccc3C)N2C)nc2cccc(N3CCN(C)CC3)n12 [Compound I-21] | 0.1 to 10 ×10⁻⁶ cm/s | 10 to 30 ×10⁻⁶ cm/s | 0.1 to 10 |
| Cc1cccnc1[C@@H]1CCC[C@H](c2cn3c(N4CCN(C5CC5)CC4)cccc3n2)N1C [Compound I-66] | 10 to 30 ×10⁻⁶ cm/s | 10 to 30 ×10⁻⁶ cm/s | 0.1 to 10 |
| C#Cc1c([C@H]2CCC[C@@H](c3ncccc3C)N2C)nc2cccc(N3CCN(C)CC3)n12 [Compound I-89] | 0.1 to 10 ×10⁻⁶ cm/s | 0.1 to 10 ×10⁻⁶ cm/s | 0.1 to 10 |
| Clc1cccnc1[C@@H]1CCC[C@H](c2nc3cccc(N4CCNC5(CC5)C4)n3c2Cl)N1 [Compound I-167] | 0.1 to 10 ×10⁻⁶ cm/s | 0.1 to 10 ×10⁻⁶ cm/s | 0.1 to 10 |
| CN1CCN(c2cccc3nc([C@H]4CCC[C@@H](c5ncccc5OC(F)(F)F)N4C)cn23)CC1 [Compound I-81] | 10 to 30 ×10⁻⁶ cm/s | 10 to 30 ×10⁻⁶ cm/s | 0.1 to 10 |
| Cc1cccnc1[C@@H]1CCC[C@H](c2nc3cccc(N4CCN(C)CC4)n3c2Br)N1C(C)C [Compound I-47] | 0.1 to 10 ×10⁻⁶ cm/s | 0.1 to 10 ×10⁻⁶ cm/s | 0.1 to 10 |
| Cc1cccnc1[C@@H]1CCC[C@H](c2nc3cccc(N4CCN(C5CC5)CC4)n3c2Cl)N1C [Compound I-93] | 10 to 30 ×10⁻⁶ cm/s | 0.1 to 10 ×10⁻⁶ cm/s | 0.1 to 10 |
| CN(C)C1CCN(c2cccc3nc([C@H]4CCC[C@@H](c5ncccc5Cl)N4C)c(CO)n23)CC1 [Compound I-136] | 0.1 to 10 ×10⁻⁶ cm/s | 10 to 30 ×10⁻⁶ cm/s | 10 to 30 |
| Cc1cccnc1[C@@H]1CCC[C@H](c2nc3ccccn3c2CCCN2CCOCC2)N1C [Compound I-29] | 0.1 to 10 ×10⁻⁶ cm/s | 10 to 30 ×10⁻⁶ cm/s | 0.1 to 10 |
| Cc1cccnc1[C@@H]1CCC[C@H](c2nc3cccc(N4CCN(C)CC4)n3c2COC2CC2)N1C [Compound I-85] | 0.1 to 10 ×10⁻⁶ cm/s | 10 to 30 ×10⁻⁶ cm/s | 0.1 to 10 |
| Cc1cccnc1[C@@H]1CCC[C@H](c2nc3cccc(N4CCN(C)CC4)n3c2Br)N1C [Compound I-17] | 0.1 to 10 ×10⁻⁶ cm/s | 0.1 to 10 ×10⁻⁶ cm/s | 0.1 to 10 |
| Cc1cccnc1[C@@H]1CCC[C@H](c2nc3ccccn3c2COC2CCN(C)CC2)N1C [Compound I-62] | 0.1 to 10 ×10⁻⁶ cm/s | 10 to 30 ×10⁻⁶ cm/s | > 30 |

Target: CXCR-4 transfected U87 cell line (U87.CXCR4) (Homo sapiens (Human), UniProt P61073)
Test: Intracellular CXCL-12-induced calcium mobilization assay (FLIPR)
Type: cell-based
Details: U87.CXCR4 cells, CXCL-12 25-50 ng/mL; read-out: IC50 CXCL-12 Ca2+ flux U87.CXCR4+
Method in brief: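 U87.CXCR4 cells were seeded at 20,000 per well, cultured 12 hours, then loaded with 4 μM Fluo-2 AM for 45 min at 37° C. in HBSS with 20 mM HEPES and 0.2% BSA, pH 7.4. Calcium flux triggered by CXCL-12 (25-50 ng/mL) was tracked over time by FLIPR fluorescence at 37° C.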

CXCR-4 transfected U87 cell line (U87.CXCR4), sequence (P61073 whole entry): as above

| Structure (SMILES) | IC50 |
| --- | --- |
| Cc1cccnc1[C@@H]1CCC[C@H](c2cn3c(N4C5CCC4CNC5)cccc3n2)N1C [Compound I-110] | 0.01 to 100 nM |
| Cc1cccnc1[C@@H]1CCC[C@H](c2nc3ccccn3c2COC2CCCN(C)C2)N1C (stereo partly shown) [Compound I-63] | 100 to 1000 nM |
| Cc1cccnc1[C@@H]1CCC[C@H](c2cn3c(N4CCN(C)CC4)cccc3n2)N1CCCO [Compound I-49] | 0.01 to 100 nM |
| Cc1cccnc1[C@@H]1CCC[C@H](c2nc3cccc(N4CCN(C5CC5)CC4)n3c2Br)N1C [Compound I-67] | 100 to 1000 nM |
| CO[C@H](c1c([C@H]2CCC[C@@H](c3ncccc3C)N2C)nc2ccccn12)C1CCN(C)CC1 [Compound I-104] | 100 to 1000 nM |
| CCOCc1c([C@H]2CCC[C@@H](c3ncccc3C)N2C)nc2cccc(N3CCN(C)CC3)n12 [Compound I-21] | 0.01 to 100 nM |
| Cc1cccnc1[C@@H]1CCC[C@H](c2cn3c(N4CCN(C5CC5)CC4)cccc3n2)N1C [Compound I-66] | 100 to 1000 nM |
| C#Cc1c([C@H]2CCC[C@@H](c3ncccc3C)N2C)nc2cccc(N3CCN(C)CC3)n12 [Compound I-89] | 0.01 to 100 nM |
| Clc1cccnc1[C@@H]1CCC[C@H](c2nc3cccc(N4CCNC5(CC5)C4)n3c2Cl)N1 [Compound I-167] | ≥ 1000 nM |
| CN1CCN(c2cccc3nc([C@H]4CCC[C@@H](c5ncccc5OC(F)(F)F)N4C)cn23)CC1 [Compound I-81] | 100 to 1000 nM |
| Cc1cccnc1[C@@H]1CCC[C@H](c2nc3cccc(N4CCN(C)CC4)n3c2Br)N1C(C)C [Compound I-47] | 0.01 to 100 nM |
| Cc1cccnc1[C@@H]1CCC[C@H](c2nc3cccc(N4CCN(C5CC5)CC4)n3c2Cl)N1C [Compound I-93] | 100 to 1000 nM |
| CN(C)C1CCN(c2cccc3nc([C@H]4CCC[C@@H](c5ncccc5Cl)N4C)c(CO)n23)CC1 [Compound I-136] | 0.01 to 100 nM |
| Cc1cccnc1[C@@H]1CCC[C@H](c2nc3ccccn3c2CCCN2CCOCC2)N1C [Compound I-29] | 100 to 1000 nM |
| Cc1cccnc1[C@@H]1CCC[C@H](c2nc3cccc(N4CCN(C)CC4)n3c2COC2CC2)N1C [Compound I-85] | 0.01 to 100 nM |
| Cc1cccnc1[C@@H]1CCC[C@H](c2nc3cccc(N4CCN(C)CC4)n3c2Br)N1C [Compound I-17] | 0.01 to 100 nM |
| Cc1cccnc1[C@@H]1CCC[C@H](c2nc3ccccn3c2COC2CCN(C)CC2)N1C [Compound I-62] | ≥ 1000 nM |
